Data from patent US20220296637A1, “SODIUM THIOSULFATE GEL FOR PREVENTING OR REDUCING HEARING LOSS” (STICHTING HET NEDERLANDS KANKER INSTITUUT-ANTONI VAN …, priority 2019, published 2022).

Tests used:
[1] = system: cisplatin-induced hearing loss (CIHL); details: cited from earlier work; for patients in whom CIHL was seen: 61 patients treated with STS (intravenous), 64 with cisplatin alone, p=0.00022; for overall survival: children with disseminated disease, additional intravenous STS vs cisplatin alone, p=0.009
[2] = reported incidences vary widely amongst studies; cited from earlier work
[3] = guinea pigs; cited from earlier work
[4] = system: cisplatin-induced hearing loss (CIHL); experiment: Phase 1 trial of transtympanic STS gel: audiometry (pure tone averages) for efficacy against cisplatin-induced hearing loss; type: in vivo, human; details: for Δ PTA 0.5-1-2 kHz (posttreatment − baseline) / Δ PTA 1-2-4 kHz (posttreatment − baseline) / Δ PTA 8-10-12.5 kHz (posttreatment − baseline): STS-treated ears; for difference in ΔPTA3 in favour of the untreated ear: last non-responder
Method: Arm A was a single-blind, placebo controlled, proof-of-concept study. A different application method was investigated in arm B, which was a non-blinded, non-placebo controlled, proof of concept arm. The ear to be treated with the transtympanic STS gel was assigned by randomisation in both arms. The study was performed at the Netherlands Cancer Institute in Amsterdam, the Netherlands. The protocol was approved by the institutional medical research ethics committee. The study is registered with the European Clinical Trials Database (EudraCT) (EudraCT: 2012-004653-80). […] Exclusion criteria were: known symptomatic brain or leptomeningeal metastases and relevant otological history (e.g. conductive hearing loss, vertigo). All patients gave written informed consent prior to start of study procedures. The ear to be treated with the transtympanic STS gel was assigned by randomisation in both arm A and arm B. Arm A concerned a single-blind study protocol in which the contralateral ear was treated with a placebo gel. Arm B was non-blinded and the contralateral ear was left untreated. The enrolment of patients was done by a treating physician. Randomisation was done via a randomisation program at the institutional trial centre. […] In arm B only the STS gel was prepared. Syringes with study medication were warmed up to body temperature (37° C.) for 30 minutes in an incubator ([…], Switzerland) to prevent hypo- or hypercaloric symptoms during or after injections. The syringe was connected to the (Braun, […]) needle via a 10 cm infusion line (BD Becton Dickenson connecta). […] To approach the eardrum in a perpendicular orientation. In arm A, the gels were administered through a […] grommet, which was placed for venting air to prevent barotrauma and/or pain while injecting. During this procedure we noticed there was backflow of the gel via the infusion needle backward into the external ear canal. Therefore, a different protocol for the transtympanic injection was chosen in arm B for the next 6 patients: the grommet was still placed in the anterior eardrum for ventilation of the middle ear, however, the STS gel was injected via the needle directly through the posterior part of the eardrum and indeed backflow into the external ear was not seen anymore. Topical anesthesia was applied using a few small (3×3 mm) gauzes with xylocaine 10% (lidocaine 100 mg/ml, AstraZeneca, United Kingdom) applied on the eardrum before placement of the grommet and the injections. During the injections, the patient was lying in a hospital bed with the upper body positioned 30 degrees upwards. After administration of the gel the patients head was turned 45 degrees contralateral. […] The specific positioning of the patient was in our view needed to for improved and/or prolonged exposure of the STS gel to the round window of the middle ear. […] If concomitant chemotherapy or radiotherapy was to be administered, this was done as per local protocol. […] Standard audiometry including air conduction (AC) and bone conduction (BC) thresholds was performed in a sound proof booth using the Decos Audiology Workstation. […] Six evaluable patients per study arm were considered sufficient to reach proof of concept based on the intra-patient comparison and the expected audiometric difference between the STS-treated and untreated/placebo treated ears. […] To study whether there was a significant difference in CIHL over time ([…]) between the STS ears and the untreated ears, the […] with paired samples was used.

[5] = system: cisplatin-induced hearing loss (CIHL); details: cited from earlier work
[6] = in vivo; cited from earlier work
[7] = system: cisplatin-induced hearing loss; details: transtympanic STS gel (0.5 M, 0.1 ml, 24 hours prior to cisplatin); 13 patients; 3 to 10 kHz; not significant; cited from earlier work

## N.N.[Cl][Pt][Cl] [Cisplatin, cis-diaminedichloroplatinum(II)]
[1]
  patients in whom CIHL was seen: 56%
  overall survival: 84%
[2]
  occurrence of cisplatin-induced hearing loss in cisplatin-treated patients: 75-80%

## O=S([O-])([O-])=S.[Na+].[Na+] [STS, sodium thiosulfate]
[3]
  perilymph STS concentrations, transtympanic injections compared with intravenous infusion: higher
[4]; 4 patients with ototoxicity who responded to STS-gel
  Δ PTA 0.5-1-2 kHz (posttreatment − baseline): −0.4 dB HL
[4]; 4 responders
  Δ PTA 1-2-4 kHz (posttreatment − baseline): −0.4 dB HL
  Δ PTA 8-10-12.5 kHz (posttreatment − baseline): 6.8 dB SPL
[4]; 12 STS-treated ears vs 12 untreated ears, McNemar p=0.125
  occurrence of SNHL (ΔPTA3 ≥10 dB), STS-treated versus untreated ears: no statistically significant difference
[4]; all 12 patients
  Δ PTA 1-2-4 kHz (posttreatment − baseline): 2.5 dB HL
  Δ PTA 8-10-12.5 kHz (posttreatment − baseline): 8.8 dB SPL
[4]; all 12 patients, STS-treated ears (untreated ears 12.7 dB)
  ΔPTA3 (8-10-12.5 kHz), overall: 8.8 dB
[4]; all 12 patients, directly after last cisplatin cycle minus baseline
  Δ PTA 0.5-1-2 kHz (posttreatment − baseline): 2.1 dB HL
[4]; four non-responders, STS-treated ears (untreated ears 15.2 dB)
  ΔPTA3: 14.3 dB
[4]; four responders, STS-treated ears (untreated ears 25.2 dB)
  mean ΔPTA3: 6.8 dB
[4]; four responders, in favour of STS-treated ear, range 11.7-33.3 dB
  difference in ΔPTA3 between STS-treated ears and untreated ears: 18.4 dB
[4]; at follow-up audiometry
  difference in ΔPTA3 in favour of the untreated ear: 2.3 dB SPL
[4]; directly after treatment
  difference in ΔPTA3 in favour of the untreated ear: 10.0 dB SPL
[4]; three of the four non-responders
  difference in ΔPTA3 between ears: < 10 dB SPL
[5]; children
  adverse events likely attributed to intravenous STS administration: tumour progression and grade 3 infection, neutropenia, electrolyte disorders and anaemia
[5]; intravenous STS, 95% confidence interval 0.33-0.81
  relative risk of CIHL: 52%
[5]; intravenous STS, 109 children, p=0.002
  reduction of the incidence of CIHL versus cisplatin alone: 48%
[6]
  oral bio-availability: poor
[1]
  patients in whom CIHL was seen: 29%
  overall survival: 45%
[7]
  averaged hearing loss less in STS-treated ears than in untreated ears: 1.3 dB
